Data from paper PMC10541198, “Specific quinone reductase 2 inhibitors reduce metabolic burden and reverse Alzheimer’s disease phenotype in mice” (The Journal of Clinical Investigation, 2023).
Several values for one entry are separate records, joined by “and”; a condition that tells them apart may be missing. Identical values can stand only once.

Tested on: 5xFAD mice
Experiment: Delay fear conditioning in 5xFAD mice, YB-537 in drinking water
Assay type: in vivo, mouse
Design: Figure 8A, delay fear conditioning: unit not given here
Details: for freezing to conditioned context (individual mice) / freezing to conditioned cue (individual mice): in % (unit assumed); for Figure 8A, delay fear conditioning: individual animals
Procedure: We next aimed to test the effect of QR2 inhibition in AD model mice using YB-537, taking advantage of its extremely high specificity, solubility, and lack of toxicity. First, we determined YB-537 pharmacokinetics (PK) and oral bioavailability and assessed any acute observable toxicity in mice. […] We therefore opted to chronically deliver YB-537 to AD-model mice via their drinking water, so they may freely ingest the inhibitor at 50 mg/kg, with minimal intervention or trauma, for 1 month. We chose 9-month-old 5xFAD ([27]) male and female mice in double-blind experiments, so that well-progressed symptoms and pathologies would be present, to mimic clinically relevant cases in human patients ([35]), as has been previously described in this mouse model. Other than an improvement in nest quality ([36]) over time seen in animals receiving YB-537 (starting at age 8 months and ending at age 9 months), no changes to general physical parameters or wellbeing were observed over the 1 month of YB-537 ingestion (Supplemental Figure 6, A–J). Animals received the treatment for a week, and, on week 2, behavioral experiments commenced, including Morris water maze (MWM) and novel object recognition (NOR). These were carried out in parallel, with half of the animals (including both sexes and treatments) undergoing 1 of the paradigms in week 2, and the other in week 3. […] Since learning in this paradigm was slow, and performance was poor even following 6 days of training (using 4 learning trials a day), a test day was not carried out and instead only the learning rate was measured. […] Finally, during week 4, all the mice underwent DFC.
Since 1 month of chronic YB-537 ingestion rescued cognitive and pathological phenotypes more efficiently in female compared with male 5xFAD mice, we hypothesized that males may require a longer dosing regimen than females in order achieve a similar therapeutic effect. We therefore ran an additional experiment where we treated 5-month-old male 5xFAD mice with 50 mg/kg of YB-537 in drinking water for 4 months (starting at the age of 5 months, and ending at the age of 9 months, similar to the experiment described above), and compared cognitive performance to male 5xFAD and WT control mice of the same age not being treated with YB-537, using DFC in double-blind experiments.
DFC was done as previously described ([7]). Briefly, mice were given 2 minutes to explore the conditioning chambers, during which baseline freezing was measured. Then, a 20 second, 4 kHz, 80 dB tone was given, coterminating with the start of a 2 second, 0.5 mA foot-shock. This was repeated twice more in 1 minute intervals. Following the third and last bout, 1 minute was given before the animals were removed from the chambers. The next day, the animals were returned to the room under the same conditions and were placed back into the chambers, and freezing to the context was measured over the course of 5 minutes. The next day, the mice were brought to unfamiliar conditioning rooms and chambers. In this unfamiliar context, the protocol from the first day was repeated, except without the foot shocks. Freezing for the cue was recorded, starting from the sounding of the first tone. All measurements were taken with a Sentec stc-tb33usb-at camera, and analysis was done with Freeze Frame software (Actimetrics). […]
only, and kept there for 2 min. They were then placed inside a Habitest Operant Cage, within a Habitest Isolation Cubicle (Coulbourn), on a modular shock floor made of 16 m et al grids, connected to Precision Animal Shockers (Coulbourn) with illumination inside the cage coming from a 20 W bulb. Themice were given 2 min to explore, during which baseline freezing was measured. Then, a 20 s, 4 kHz, 80 dB tone was given, co- terminating with the start of a 2 s, 0.5 mA foot-shock, which was repeated a further two times, each having 1 min interval. Following the third, and last of these bouts, 1 min was given prior to the animals being removed from the chambers. […]

Cc1ccc(-c2cn3cccc(C)c3n2)cc1S(=O)(=O)N1CCNCC1 [YB-537]
freezing to conditioned context (individual mice) (5xFAD 1 month, both sexes): 26.3 and 36.9 and 45.3 and 29.6 and 49.0 and 37.4 and 41.6 and 45.9 and 41.9 and 40.7 and 24.2 and 16.0 and 23.6 and 22.5 and 44.6 and 33.3
freezing to conditioned cue (individual mice) (5xFAD 1 month, both sexes): 15.0 and 17.0 and 24.7 and 22.5 and 22.1 and 14.0 and 31.4 and 12.7 and 18.5 and 20.4 and 8.8 and 16.5 and 7.1 and 13.0 and 5.4 and 14.5
freezing to conditioned context (individual mice) (5xFAD 1 month, females): 26.3 and 36.9 and 16.0 and 23.6 and 22.5 and 44.6 and 33.3
freezing to conditioned cue (individual mice) (5xFAD 1 month, females): 15.0 and 17.0 and 16.5 and 7.1 and 13.0 and 5.4 and 14.5
freezing to conditioned context (individual mice) (5xFAD 1 month, males): 45.9 and 41.9 and 40.7 and 24.2 and 45.3 and 29.6 and 49.0 and 37.4 and 41.6
freezing to conditioned cue (individual mice) (5xFAD 1 month, males): 12.7 and 18.5 and 20.4 and 8.8 and 24.7 and 22.5 and 22.1 and 14.0 and 31.4
Figure 8A, delay fear conditioning (Baseline): 11.3 and 26.4 and 19.1 and 15.1 and 10.9 and 6.4 and 3.1 and 7.6 and 8.2
Figure 8A, delay fear conditioning (CS/US 1): 31.6 and 45.2 and 36.2 and 37.7 and 37.5 and 20.1 and 19.4 and 47.6 and 48.9
Figure 8A, delay fear conditioning (CS/US 2): 48.3 and 58.0 and 52.7 and 47.1 and 45.6 and 18.2 and 23.2 and 57.0 and 60.3
Figure 8A, delay fear conditioning (CS/US 3): 62.5 and 61.5 and 55.2 and 55.7 and 52.0 and 17.2 and 31.2 and 65.3 and 57.9
learning during delay-fear conditioning (male 5xFAD, 50 mg/kg in drinking water 4 months): normal learning
freezing to conditioned context (individual mice) (male 5xFAD, 4 months): 24.6 and 26.8 and 50.3 and 22.2 and 32.3 and 63.4 and 63.3 and 75.1 and 38.8
freezing to conditioned cue (individual mice) (male 5xFAD, 4 months): 44.3 and 66.5 and 54.4 and 28.0 and 38.6 and 64.3 and 47.4 and 65.9 and 58.0
learning during delay fear conditioning (male and female 5xFAD, 1 month in drinking water): no difference observed across groups
